Assay results from patent US11608334B2, “Pyrrolo-aromatic heterocyclic compound, preparation method therefor, and medical use thereof” (The National Institutes of Pharmaceutical R&D Co., Ltd., priority 2017, dated 2023).

Assays:
BTK = biological target: T1, BTK (Homo sapiens, UniProt Q06187); experiment: Determination of BTK inhibitory activity (ADP-Glo kinase assay); type: biochemical; settings: BTK (Promega), Poly E4Y substrate, 25° C., 60 minutes
T1 construct: purchased Promega
Method: To a 384 reaction plate (6008280, PerkinElmer), 2 μL/well of BTK solution (purchased from Promega) was added. The test compound (10 mM stock solution) was diluted 100-fold to 100 μM with 100% DMSO. In a 384 dilution plate (3657, coming), a 1:3 dilution was made, and the gradient concentrations of the test compounds were 100, 33.3, 11.1, 3.7, 1.24, 0.41, 0.14, 0.046, 0.015, 0.0051, 0 μM. 2 μL of the test compound was transferred to a 384-dilution plate containing 38 μL of 1× Kinase Reaction Buffer, homogenized and centrifuged at 1000 rpm. 1 μL of the test compound was transferred to the 384 reaction plate, centrifuged at 1000 rpm, and incubated at 25° C. for 15 minutes. 2 μL of substrate mixture (ATP: 10 mM, 4 μL; Poly E4Y 1:1 mg/mL, 20 μL; Kinase Reaction Buffer: 776 μL) was transferred to a 384 reaction plate, centrifuged at 1000 rpm and incubated at 25° C. for 60 minutes. The final concentration of the test compound in the reaction system was the gradients of 1000, 333.3, 111.1, 37.03, 12.35, 4.14, 1.37, 0.46, 0.15, 0.051, 0 nM. The final concentration of DMSO was 1%. 5 μL of ADP-Glo solution (purchased from Promega) was transferred to a 384 reaction plate, centrifuged at 1000 rpm and incubated at 25° C. for 40 minutes. 10 μL of Detection solution was transferred to a 384 reaction plate, centrifuged at 1000 rpm and incubated for 40 minutes at 25° C. The RLU (Relative luminescence unit) signal was read using an Envision multi-function reader (Perkin Elmer), and the signal intensity was used to characterize the activity of BTK kinase. The IC50 values was calculated and analyzed by Microsoft Excel software.

[1] = test system: Type 2 Collagen Induced DBA/1J Mouse Arthritis Model (CIA); experiment: Type 2 collagen induced DBA/1J mouse arthritis model (CIA), arthritis index score; type: in vivo; settings: CIA DBA/1 mice, 30 mg/kg orally once a day, n = 9
Method: The CIA model is an animal model widely used to study the drug activity on human rheumatoid arthritis.
Animals: DBA/1 mice, sex: male, number: 30, weight: 14-16 g, age of weeks: 6-7 weeks old, purchased from Beijing Weitong Lihua Experimental Animal Technology Co., Ltd., SPF, animal production license number: SCXK (Beijing) 2012-0001, the issue unit: Beijing Science and Technology Commission.
Group: model control group, administration (30 mg/Kg) group (compound of example 33).
An appropriate amount of Bovine Type II Collage (purchased from Chondrex. Inc.) was dissolved in 0.05 M acetic acid (4 mg collagen/mL) and stored in a refrigerator at 4° C. overnight. Then it was fully emulsified with an equal amount of complete Freund's adjuvant in an ice bath environment. Each DBA/1J mouse was injected subcutaneously at 1.5 cm from the base of the tail with 0.1 mL emulsion (200 μg of collagen). Clinical symptom observation and arthritis score were started 4 weeks after modeling. The scores of all symptomatic animals were ranked and randomly grouped into two groups, which were model control group (the same amount of 0.5% CMC was administered orally) and administration group (30 mg/kg of the compound of Example 33 was administered orally) respectively. The administration was continued for 21 days withonce a day. Arthritis scores and body weight changes were measured every 3 days after administration.
Arthritis Index Score: The arthritis index score is based on Wood's arthritis score as follows: • 0 points: normal • 1 points: redness involving 1 knuckle • 2 points: redness involving more than 2 knuckles or mild redness involving entire foot • 3 points: the feet are red and swollen • 4 points: the feet are severely red and swollen, and the joints are stiff and inelastic.
The damage of each of the 4 paws was graded as 0-4 points and the total score of the limbs was calculated. The scores at different times were compared (arthritis index).

T1 sequence (Q06187 whole entry): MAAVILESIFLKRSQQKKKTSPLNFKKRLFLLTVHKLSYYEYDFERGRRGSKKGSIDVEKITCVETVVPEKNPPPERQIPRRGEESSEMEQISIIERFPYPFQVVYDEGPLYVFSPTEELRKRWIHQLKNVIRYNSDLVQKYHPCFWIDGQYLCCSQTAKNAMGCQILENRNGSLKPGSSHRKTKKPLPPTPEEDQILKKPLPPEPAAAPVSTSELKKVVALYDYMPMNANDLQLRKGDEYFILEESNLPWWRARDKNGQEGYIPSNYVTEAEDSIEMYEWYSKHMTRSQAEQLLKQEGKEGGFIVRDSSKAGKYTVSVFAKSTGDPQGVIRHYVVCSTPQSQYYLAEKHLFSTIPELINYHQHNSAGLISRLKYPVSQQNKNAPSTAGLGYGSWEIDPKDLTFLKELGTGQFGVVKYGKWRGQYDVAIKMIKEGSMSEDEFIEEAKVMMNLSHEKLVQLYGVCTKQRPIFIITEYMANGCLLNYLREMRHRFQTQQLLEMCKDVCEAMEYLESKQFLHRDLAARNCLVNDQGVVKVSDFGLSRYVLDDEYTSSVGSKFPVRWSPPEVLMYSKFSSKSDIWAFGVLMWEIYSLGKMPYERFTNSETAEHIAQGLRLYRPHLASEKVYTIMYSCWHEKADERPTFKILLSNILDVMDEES

IC50 (BTK) | Compound | other results
< 100 nM | C=CC(=O)Nc1cccc(Oc2ncnc3[nH]c(-c4ccc(NC5CCN(C)CC5)cc4)cc23)c1 [Example 53, N-(3-((6-(4-((1-methylpiperidin-4-yl)amino)phenyl)-7H-pyrrolo[2,3-d]pyrimidin-4-yl)oxy)phenyl)acrylamide] | 
< 100 nM | CC#CC(=O)Nc1cccc(Oc2ncnc3[nH]c(-c4ccc(N5CCN(C)CC5)cc4)cc23)c1 [Example 6, N-(3-((6-(4-(4-methylpiperazin-1-yl)phenyl)-7H-pyrrolo[2,3-d]pyrimidin-4-yl)oxy)phenyl) but-2-ynylamide] | 
< 100 nM | C=CC(=O)Nc1cccc(Oc2ncnc3[nH]c(-c4ccc(CN5CCOCC5)cc4)cc23)c1 [Example 46, N-(3-((6-(4-(morpholinomethyl)phenyl)-7H-pyrrolo[2,3-d]pyrimidin-4-yl)oxy)phenyl)acrylamide] | 
< 100 nM | C=CC(=O)Nc1cc(Oc2ncnc3[nH]c(-c4ccc(N5CCOCC5)cc4)cc23)ccc1F [Example 19, N-(2-Fluoro-5-((6-(4-morpholinylphenyl)-7H-pyrrolo[2,3-d]pyrimidin-4-yl)oxy)phenyl)acrylamide] | 
< 100 nM | C=CC(=O)Nc1cccc(Oc2ncnc3[nH]c(-c4ccc(CN5CCC(F)(F)CC5)cc4)cc23)c1 [Example 47, N-(3-((6-(4-((4,4-Difluoropiperidin-1-yl)methyl)phenyl)-7H-pyrrolo[2,3-d]pyrimidin-4-yl)oxy)phenyl)acrylamide] | 
< 100 nM | C=CC(=O)Nc1cccc(Oc2ncnc3[nH]c(-c4ccc(N5CCN(C)CC5)c(F)c4)cc23)c1 [Example 25, N-(3-((6-(3-fluoro-4-(4-methylpiperazin-1-yl)phenyl)-7H-pyrrolo[2,3-d]pyrimidin-4-yl)oxy)phenyl)acrylamide] | 
< 100 nM | C=CC(=O)Nc1cccc(Oc2ncnc3[nH]c(-c4ccc(CN5CCS(=O)(=O)CC5)cc4)cc23)c1 [Example 44, N-(3-((6-(4-((1,1-dioxothiomorpholinyl)methyl)phenyl)-7H-pyrrolo[2,3-d]pyrimidin-4-yl)oxy)phenyl)acrylamide] | 
< 100 nM | C=CC(=O)Nc1cc(Oc2ncnc3[nH]c(-c4ccc(N5CCN(C)CC5)cc4)cc23)ccc1F [Example 18, N-(2-fluoro-5-((6-(4-(4-methylpiperazin-1-yl)phenyl)-7H-pyrrolo[2,3-d]pyrimidin-4-yl)oxy)phenyl)acrylamide] | 
< 100 nM | C=CC(=O)Nc1cccc(Oc2ncnc3[nH]c(-c4ccc(N5CCN(C)CC5)cc4)cc23)c1 [Example 12, N-(3-((6-(4-(4-methylpiperazin-1-yl)phenyl)-7H-pyrrolo[2,3-d]pyrimidin-4-yl)oxy)phenyl) acrylamide] | 
< 100 nM | CC#CC(=O)Nc1cccc(Oc2ncnc3[nH]c(-c4ccc(CN5CCC(F)(F)CC5)cc4)cc23)c1 [Example 63, N-(3-((6-(4-((4,4-difluoropiperidin-1-yl)methyl)phenyl)-7H-pyrrolo[2,3-d]pyrimidin-4-yl)oxy)phenyl)but-2-ynylamide] | 
< 100 nM | C=CC(=O)Nc1cccc(Oc2c(F)cnc3[nH]c(-c4ccc(N5CCN(C)CC5)cc4)cc23)c1 [Example 2, N-(3-((5-fluoro-2-(4-(4-methylpiperazin-1yl)phenyl)-1H-pyrrolo[2,3-b]pyridin-4-yl)oxy)phenyl) acrylamide] | 
< 100 nM | C=CC(=O)Nc1cccc(Oc2c(Cl)cnc3[nH]c(-c4ccc(N5CCN(C)CC5)cc4)cc23)c1 [Example 1, N-(3-((5-chloro-2-(4-(4-methylpiperazin-1yl)phenyl)-1H-pyrrolo[2,3-b]pyridin-4-yl)oxy)phenyl)acrylamide] | 
< 100 nM | C=CC(=O)N(C)c1cccc(Oc2ncnc3[nH]c(-c4ccc(N5CCOCC5)cc4)cc23)c1 [Example 16, N-methyl-N-(3-((6-(4-morpholinylphenyl)-7H-pyrrolo[2,3-d]pyrimidin-4-yl)oxy)phenyl)acrylamide] | 
< 100 nM | C=CC(=O)Nc1cccc(Nc2ncnc3[nH]c(-c4ccc(N5CCN(C)CC5)cc4)cc23)c1 [Example 5, N-(3-((6-(4-(4-methylpiperazin-1-yl)phenyl)-7H-pyrrolo[2,3-d]pyrimidin-4-yl)amino)phenyl)acrylamide] | 
< 100 nM | C=CC(=O)Nc1cccc(Nc2ncnc3[nH]c(-c4ccc(N5CCOCC5)cc4)cc23)c1 [Example 32, N-(3-((6-(4-morpholinylphenyl)-7H-pyrrolo[2,3-d]pyrimidin-4-yl)amino)phenyl) acrylamide] | 
 | C=CC(=O)Nc1cccc(Oc2ncnc3[nH]c(-c4ccc(N5CCOCC5)cc4)cc23)c1 [Example 33, N-(3-((6-(4-morpholinylphenyl)-7H-pyrrolo[2,3-d]pyrimidin-4-yl)oxy)phenyl)acrylamide] | Arthritis score ([1]; 3 day after administration): 5.00 ± 3.16; Arthritis score ([1]; 7 day after administration): 5.78 ± 2.91; Arthritis score ([1]; 10 day after administration): 6.13 ± 3.23; Arthritis score ([1]; 14 day after administration, *P < 0.05 vs model control): 5.13 ± 3.60*; Arthritis score ([1]; 17 day after administration, *P < 0.05 vs model control): 4.63 ± 3.11*; Arthritis score ([1]; 21 day after administration, **P < 0.01 vs model control): 3.63 ± 1.92**; Arthritis score ([1]; Before administration): 4.11 ± 3.26
< 100 nM | CC#CC(=O)Nc1cccc(Oc2ncnc3[nH]c(-c4ccc(CN5CCCCC5)cc4)cc23)c1 [Example 64] | 
